The target of one assay is T1, COX-1 enzyme (Ovis aries, UniProt P05979).
T1 sequence (P05979 25-600): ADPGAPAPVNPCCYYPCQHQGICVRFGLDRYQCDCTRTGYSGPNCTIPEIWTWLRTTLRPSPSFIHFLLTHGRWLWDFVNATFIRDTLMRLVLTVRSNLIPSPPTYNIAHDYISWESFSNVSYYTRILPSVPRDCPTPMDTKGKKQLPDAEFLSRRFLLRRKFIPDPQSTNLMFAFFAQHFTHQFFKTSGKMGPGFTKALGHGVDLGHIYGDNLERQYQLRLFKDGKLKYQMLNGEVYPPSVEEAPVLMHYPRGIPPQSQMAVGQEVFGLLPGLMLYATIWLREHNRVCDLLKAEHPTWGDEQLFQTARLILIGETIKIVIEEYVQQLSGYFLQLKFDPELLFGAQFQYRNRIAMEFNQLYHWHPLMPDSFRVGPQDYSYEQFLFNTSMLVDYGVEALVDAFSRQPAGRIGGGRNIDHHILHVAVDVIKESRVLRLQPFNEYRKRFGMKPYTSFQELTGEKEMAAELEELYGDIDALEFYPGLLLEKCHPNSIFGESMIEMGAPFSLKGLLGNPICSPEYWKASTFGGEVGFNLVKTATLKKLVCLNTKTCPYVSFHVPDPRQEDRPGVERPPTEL
Briefly: Cyclooxygenase inhibitory assay (oxygen consumption, arachidonic acid substrate), COX-1. The format is biochemical. Conditions: for COX-1 enzyme inhibition: at 100 ppm (FIG. 1). The protocol: (§1) Cyclooxygenase enzyme inhibitory assay of the extracts and compounds were carried out using COX-1 and COX-2 enzymes according to the previously published procedures (Jayaprakasam, B. et al., 2006. J. Agric. Food Chem., 54, 5375-5381).
(§2) Cyclooxygenase Inhibitory Activity. The rate of oxygen consumption during the initial phase of the enzyme-mediated reaction, with arachidonic acid as substrate was measured using a Model 5300 biological oxygen monitor (Yellow Spring Instrument, Inc., Yellow Spring, Ohio). The test compounds, extracts and positive controls were dissolved in DMSO and an aliquot of 10 μL of each was added to the reaction chamber containing 0.6 mL of Tris buffer (0.1 M, pH 7) and, 1 mM of phenol, hemoglobin (17 μg). COX-1 or -2 enzymes (10 μL) was added to the chamber and incubated for 3 min. The reaction was initiated by the addition of arachidonic acid (10 μL of 1 mg/mL solution). Instantaneous inhibition was measured by using Quick Log Data acquisition and control computer software (Strawberry Tree Inc., Sunnyvale, Calif., USA). The percent inhibition was calculated with respect to DMSO control. Each sample was assayed twice and the standard deviation was calculated for n=2. Aspirin, Celebrex and Vioxx were used as positive controls.

Another assay has as its target T2, COX-2 enzyme (Homo sapiens, UniProt P35354).
T2 sequence (P35354 18-604): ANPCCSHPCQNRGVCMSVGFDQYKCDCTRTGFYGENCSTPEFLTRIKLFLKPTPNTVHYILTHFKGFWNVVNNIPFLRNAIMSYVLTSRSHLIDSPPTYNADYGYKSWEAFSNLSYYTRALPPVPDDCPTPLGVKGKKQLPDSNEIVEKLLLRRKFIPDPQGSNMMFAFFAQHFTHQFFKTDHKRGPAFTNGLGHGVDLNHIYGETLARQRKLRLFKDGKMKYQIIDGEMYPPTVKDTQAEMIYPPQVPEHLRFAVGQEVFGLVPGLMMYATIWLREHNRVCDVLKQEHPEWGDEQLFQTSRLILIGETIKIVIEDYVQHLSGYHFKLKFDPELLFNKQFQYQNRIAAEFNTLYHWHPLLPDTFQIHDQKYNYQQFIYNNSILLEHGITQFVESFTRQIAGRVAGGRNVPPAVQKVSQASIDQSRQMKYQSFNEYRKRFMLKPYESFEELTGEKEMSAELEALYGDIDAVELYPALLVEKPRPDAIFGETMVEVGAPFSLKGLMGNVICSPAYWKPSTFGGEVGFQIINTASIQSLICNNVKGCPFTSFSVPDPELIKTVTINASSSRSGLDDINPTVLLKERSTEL
Nature of the assay: Cyclooxygenase inhibitory assay (oxygen consumption, arachidonic acid substrate), COX-2. Conditions: for COX-2 enzyme inhibition: at 100 ppm (FIG. 1). The format is biochemical. As for the experimental part:
as §1, §2

For the molecule `O=Cc1ccccc1` [A, Benzaldehyde], on COX-1 enzyme, the COX-1 enzyme inhibition entry is recorded as “not active”. In addition, the COX-2 enzyme inhibition result at COX-2 enzyme is given as “not active”.
A word on the IC50: it is the point on the concentration scale where inhibition reaches its midpoint. As to `O=Cc1ccc(O)c(O)c1O` [Compound J, 2,3,4-trihydroxybenzaldehyde], the “activity on COX-1 enzyme” value on COX-1 enzyme (even at a 500 ppm concentration (FIG. 2)) is on record as “not active”. Besides, the “selective inhibition of COX-2 enzyme” value on COX-2 enzyme (FIG. 1, 100 ppm, versus COX-1) is listed as “selectively inhibited COX-2 enzyme”. For the same molecule, at COX-2 enzyme (dose response (FIG. 2), read-out: IC50, inhibition of COX-2 (converted)), the IC50 was around 64.9 µM.
As to `O=Cc1cccc(O)c1` [C, 3-hydroxybenzaldehyde], the “selective inhibition of COX-1 enzyme” value at COX-1 enzyme (FIG. 1, 100 ppm, versus COX-2) is recorded as “selectively inhibited COX-1 enzyme”.
On to `O=Cc1cc(O)c(O)cc1O` [K, 2,4,5-trihydroxybenzaldehyde], for which, at COX-1 enzyme, the COX-1 enzyme inhibition entry is given as “not active”. Besides, the COX-2 enzyme inhibition result at COX-2 enzyme is reported as “not active”.

The values are drawn from US20090018211A1, “Method for inhibiting of COX2 and inflammation with phenolic aldehydes” (Board of Trustees of Michigan State University, priority 2007, published 2009).
